Laboratory results from patent US11518981B2, “Methods of enhancing engraftment activity of hematopoietic stem cells” (CHILDREN'S HOSPITAL MEDICAL CENTER, priority 2017, dated 2022).

What was measured:
[1] = system: human MPB derived CD34^+ cells; test: multi-lineage reconstitution (myeloid / B-lymphoid) in bone marrow of NSG mice; format: in vivo
Source text: NOD.Cg-Prkdcscid Il2rgtm1Wjl/SzJ (NSG) mice were purchased from The Jackson Laboratory (Bar Harbor, Me.). All animals were bred and maintained in a specific pathogen-free environment and all experiments were approved by the Institutional Animal Care and Use (IACUC) Committee. Male and female NSG mice aged 8 to 14 weeks old were fed doxycycline chow (TestDiet; Modified Prolab RMH-1500 with 0.0625% doxycycline) a week prior to, during and for 2 weeks post irradiation. Human engraftment was analyzed in bone marrow (BM), via BM aspirates performed at 6 and 12 weeks from left and right femurs. After sacrifice at 24 weeks, marrow from all of the primary mice (1 T) was harvested. Peripheral blood analysis was also performed in some experiments. Secondary transplants (2 T) were performed after mouse CD45^+ cells were depleted from BM harvested from each 1 T mouse separately, using Biotin Rat Anti-Mouse CD45 (BD Biosciences 553078) and Streptavidin Particles Plus-DM (BD Biosciences 557812) and injected into one irradiated (280 cGy) secondary NSG mouse. For calculating competitive repopulating units (CRU) from limiting dilution transplantation, the L-CALC^TM software (Stem Cell Technologies) was used. All of the mice used for this study were randomly assigned to a treatment group. No animals were excluded from the analysis. PE-Cyanine 7 or APC-EFLUOR® 780, APC- or PE-conjugated antibodies directed to human CD34 (BD Biosciences 560710 or 555824), CD38 (eBiosciences, San Diego, Calif. 47-0389-42), CD90 (BioLegend 328120), CD45RA (eBiosciences 17-0458-42), CD49f (BD Biosciences 555736), CD45 (BD 55485 or Biolegend 304026), CD33 (eBiosciences 25-0338-42), CD19 (BD Biosciences 557791), or CD3 (BD Biosciences 555340). Cells ( 5×10^5-1×10^6) were used to label with antibodies as per manufacturer instructions with the appropriate isotype controls. For phospho-flow, primary antibodies phospho-[…]), phospho-p44/42 MAPK (ERK 1⁄2) […]; […]), and phospho-JNK […] PE conjugate; […]) (all from Cell Signaling) were used for staining overnight followed by wash and secondary antibody stain including Goat anti-Rabbit IgG (H+L) or Goat anti-Rabbit IgG (H+L) or Pacific Blue (P-10994) antibody. Apoptosis assay was performed using PE Annexin V Apoptosis Detection Kit (BD Biosciences 559763) according to the manufacturer's instructions. Total ROS and mitochondrial specific ROS were detected using 10 μM CM-H2DCFDA (ThermoFisher Scientific C6827) and 5 μM MITOSOXTM Red (Red Mitochondrial Superoxide Indicator) (ThermoFisher Scientific M36008) respectively, following manufacturer's instructions.

[2] = system: CD34^+38^−90^+ cells; test: Annexin V apoptosis assay in HSCs; format: cell-based, human; conditions: annexin V^+ CD34^+38^−90^+ cells
Source text: PE-Cyanine 7 or APC-EFLUOR® 780, APC- or PE-conjugated antibodies directed to human CD34 (BD Biosciences 560710 or 555824), CD38 (eBiosciences, San Diego, Calif. 47-0389-42), CD90 (BioLegend 328120), CD45RA (eBiosciences 17-0458-42), CD49f (BD Biosciences 555736), CD45 (BD 55485 or Biolegend 304026), CD33 (eBiosciences 25-0338-42), CD19 (BD Biosciences 557791), or CD3 (BD Biosciences 555340). Cells (˜5×10^5−1×10^6) were used to label with antibodies as per manufacturer instructions with the appropriate isotype controls. For phospho-flow, primary antibodies phospho-p38 (Thr180/Tyr182; 4092S), phospho-p44/42 MAPK (ERK ½) (Thr202/Tyr204; 4094S), and phospho-JNK (Thr183-Tyr185 PE conjugate; 5755S) (all from Cell Signaling) were used for staining overnight followed by wash and secondary antibody stain including Goat anti-Rabbit IgG (H+L) or Goat anti-Rabbit IgG (H+L) or Pacific Blue (P-10994) antibody. Apoptosis assay was performed using PE Annexin V Apoptosis Detection Kit (BD Biosciences 559763) according to the manufacturer's instructions. Total ROS and mitochondrial specific ROS were detected using 10 μM CM-H2DCFDA (ThermoFisher Scientific C6827) and 5 μM MITOSOX™ Red (Red Mitochondrial Superoxide Indicator) (ThermoFisher Scientific M36008) respectively, following manufacturer's instructions.

[3] = system: human CD34^+ cells; test: GFP marking in human grafts of NSG mice; format: in vivo; conditions: limiting dilution transplant; also long-termed secondary human grafts
Source text: NOD.Cg-Prkdcscid Il2rgtm1Wjl/SzJ (NSG) mice were purchased from The Jackson Laboratory (Bar Harbor, Me.). All animals were bred and maintained in a specific pathogen-free environment and all experiments were approved by the Institutional Animal Care and Use (IACUC) Committee. Male and female NSG mice aged 8 to 14 weeks old were fed doxycycline chow (TestDiet; Modified Prolab RMH-1500 with 0.0625% doxycycline) a week prior to, during and for 2 weeks post irradiation. Human engraftment was analyzed in bone marrow (BM), via BM aspirates performed at 6 and 12 weeks from left and right femurs. After sacrifice at 24 weeks, marrow from all of the primary mice (1 T) was harvested. Peripheral blood analysis was also performed in some experiments. Secondary transplants (2 T) were performed after mouse CD45^+ cells were depleted from BM harvested from each 1 T mouse separately, using Biotin Rat Anti-Mouse CD45 (BD Biosciences 553078) and Streptavidin Particles Plus-DM (BD Biosciences 557812) and injected into one irradiated (280 cGy) secondary NSG mouse. […] Total ROS and mitochondrial specific ROS were detected using 10 μM CM-H2DCFDA (ThermoFisher Scientific C6827) and 5 μM MITOSOXTM Red (Red Mitochondrial Superoxide Indicator) (ThermoFisher Scientific M36008) respectively, following manufacturer's instructions.

SMILES: Cc1ccc(-n2nc(C(C)(C)C)cc2NC(=O)Nc2ccc(OCCN3CCOCC3)c3ccccc23)cc1 [p38i, 1-[5-tert-butyl-2-(4-methylphenyl)pyrazol-3-yl]-3-[4-(2-morpholin-4-ylethoxy)naphthalen-1-yl]urea]
- myeloid skewing of the transduced progeny ([1]; 24 week 1 T, cycling HSCs transduced (RV group)): somewhat reduced, but still quite significant
- multi-potentiality of the graft ([1]; 24 week 1 T, gene transfer in first 24 h (non-cycling HSCs), culture up to 96 h): restored the multi-potentiality of the graft at 24 week (1 T) to levels similar to 0 h controls
- lineage balance in transduced HSCs progeny ([1]; limiting dilution transplant, 42 h LV, 6 mo post 1 T): had less effect
- lineage balance in untransduced progeny ([1]; limiting dilution transplant, 42 h LV, 6 mo post 1 T, higher HSPC dosage): sufficient to restore lineage balance
- apoptosis in the HSC compartment [2]: no difference
- GFP marking [3]: did not have any effect
